Laboratory results reported in patent publication US9216183B2, “Topical treatment for chemotherapy induced eyelash loss or hypotrichosis using prostamide F2 alpha agonists” (ALLERGAN, INC., priority 2002, dated 2015).
Where “and” joins values, the source holds several entries; their conditions need not be identical. Identical values can stand only once.

Tested on: eyelashes of subjects with chemotherapy-induced hypotrichosis
Assay: GEA / ESQ Domain 2 responder analysis, 1-year clinical study, chemotherapy-induced hypotrichosis
Format: in vivo, human
Source text: The full 12-month study consisted of 2 distinct 6-month treatment periods, treatment period 1 (TP1) and treatment period 2 (TP2). Eligible post-chemotherapy subjects were randomly assigned in a 3:1 ratio to receive bimatoprost or vehicle for TP1. In TP2, the subjects were either maintained on or switched to bimatoprost treatment. The primary efficacy endpoint was the proportion of treatment responders at month 4 based on a composite endpoint, defined by: a) at least a 1-grade improvement from baseline in the GEA score, and b) at least a 3-point improvement from baseline in the total score for Domain 2 of the ESQ. The GEA is an investigator assessment of eyelash prominence and the ESQ score is patients own perception of their eyelashes. A one-year, multicenter, randomized, double-masked, vehicle-controlled study. Adult post-chemotherapy and idiopathic eyelash hypotrichosis subjects were enrolled based on their score of 1 or 2 on a four point ordinal Global Eyelash Assessment (GEA) scale, and in addition having a low score on a PRO measure associated with 'psychological impact' of the condition, a domain-2 of the Eyelash Satisfaction Questionnaire (ESQ). The study involved two treatment periods of six months each. In the first treatment period, subjects for both populations were randomized 3:1 for QD bimatoprost: vehicle treatment. In the second 6-month treatment period, all subjects were moved to bimatoprost treatment, except for a group of bimatoprost treated idiopathic hypotrichosis subjects (n=55) who were switched to vehicle to investigate the effect of drug discontinuation. The study included 9 visits over the 12-month treatment period. The primary end point was the proportion of responders within each treatment group based on a composite measure of GEA and ESQ Domain-2 (investigator assessed eyelash prominence and subject's assessment of 'psychological impact' related to eyelashes) at month-4. This multicenter, double-masked, randomized, parallel-group study included two 6-month treatment periods. Subjects with idiopathic hypotrichosis were randomized to 3 treatment groups: 1) treatment period 1 (TP1) and TP2: bimatoprost; 2) TP1: bimatoprost; TP2: vehicle; and 3) TP1: vehicle; TP2: bimatoprost. Subjects with chemotherapy-induced hypotrichosis were randomized to 2 treatment groups: 1) TP1: bimatoprost or vehicle; and 2) TP2: bimatoprost. The primary endpoint was a composite of at least a 1-grade improvement in investigator-assessed Global Eyelash Assessment (GEA), and at least a 3-point improvement in subject-reported Eyelash Satisfaction Questionnaire (ESQ) Domain 2 (self-perceived confidence, attractiveness, and professionalism) at month 4. Secondary measures included digitally assessed eyelash characteristics (i.e., eyelash length, fullness, and darkness). Idiopathic hypotrichosis subjects were randomized to 3 treatment arms in a 2:1:1 ratio: bimatoprost during both treatment periods; vehicle in TP1 and bimatoprost in TP2; and bimatoprost in TP1 and vehicle in TP2. Chemotherapy-induced hypotrichosis subjects were randomized in a 3:1 ratio to receive bimatoprost during both treatment periods or vehicle in TP1 followed by bimatoprost in TP2. Male or female subjects at least 18 years of age who met these criteria were eligible for inclusion in the study: a score of 1 or 2 on the clinician-graded global eyelash assessment (“GEA”); a score of 1 (very much disagree) or 2 (disagree) on each of 3 items (16 [confidence], 19 [attractiveness], and 18 [professionalism]) on the subject-assessed eyelash satisfaction questionnaire (“esq”); best-corrected visual acuity (“bcva”) score equivalent to a […] acuity of 20/100 or better in each eye; and intraocular pressure (“iop”) 20 mm hg or less in each eye. […]

[1] = postchemotherapy, Month 4, listed as Bimatoprost
[2] = postchemotherapy, Month 4, listed as bimatoprost
[3] = postchemotherapy, Month 12, bimatoprost throughout

CCNC(=O)CCC/C=C\C[C@@H]1[C@@H](/C=C/[C@@H](O)CCc2ccccc2)[C@H](O)C[C@@H]1O [Bim 0.03%, bimatoprost]
GEA response rate (FIG. 9) (chemotherapy-induced hypotrichosis, duration of the trial): about 80% | Primary composite endpoint responders (≧1-grade GEA and ≧3-point ESQ Domain 2 improvement) (postchemotherapy, Month 1): (6.3%) | Primary composite endpoint responders (≧1-grade GEA and ≧3-point ESQ Domain 2 improvement) (postchemotherapy, Month 2): (22.9%) | Responders with ≧1-grade increase in GEA score (postchemotherapy, Month 4): 72.9% | Responders with ≧2-grade increase in GEA score (postchemotherapy, Month 4): 36.5% | Responders with ≧3-point increase in ESQ Domain 2 (postchemotherapy, Month 4): 40.6% | Primary composite endpoint responders (≧1-grade GEA and ≧3-point ESQ Domain 2 improvement) [1]: 37.5% | Responders with ≧1-grade increase in GEA score [1]: 72.9% | Primary composite endpoint responders (≧1-grade GEA and ≧3-point ESQ Domain 2 improvement) [2]: 37.5% | Responders with ≧1-grade increase in GEA score [2]: > 70% and 72.9% | Primary composite endpoint responders (≧1-grade GEA and ≧3-point ESQ Domain 2 improvement) (postchemotherapy, Month 4, listed as bimatoprost 0.03%): 37.5% | Responders with ≧1-grade increase in GEA score (postchemotherapy, Month 6): 80.2% | Responders with ≧2-grade increase in GEA score (postchemotherapy, Month 6): 45.8% | Responders with ≧3-point increase in ESQ Domain 2 (postchemotherapy, Month 6): 47.9% | Primary composite endpoint responders (≧1-grade GEA and ≧3-point ESQ Domain 2 improvement) (postchemotherapy, Month 6, listed as Bim/Bim): 46.9% | Primary composite endpoint responders (≧1-grade GEA and ≧3-point ESQ Domain 2 improvement) (postchemotherapy, Month 6, listed as Bimatoprost): 46.9% | Primary composite endpoint responders (≧1-grade GEA and ≧3-point ESQ Domain 2 improvement) (postchemotherapy, Month 6, listed as bimatoprost): 46.9% | Responders with ≧2-grade increase in GEA score (postchemotherapy, Month 10, Veh/Bim (4 months after starting bimatoprost)): 50% | Primary composite endpoint responders (≧1-grade GEA and ≧3-point ESQ Domain 2 improvement) (postchemotherapy, Month 10, bimatoprost throughout): 54.2% | Responders with ≧2-grade increase in GEA score (postchemotherapy, Month 12, Veh/Bim): 52.9% | Primary composite endpoint responders (≧1-grade GEA and ≧3-point ESQ Domain 2 improvement) (postchemotherapy, Month 12, bimatoprost for 12 months (Bim/Bim)): 61.5% | Responders with ≧1-grade increase in GEA score [3]: 90.6% | Responders with ≧3-point increase in ESQ Domain 2 [3]: 63.5% | Responders with ≧2-grade increase in GEA score (postchemotherapy, Month 12, bimatoprost up to 12 months): 57.3% | Primary composite endpoint responders (≧1-grade GEA and ≧3-point ESQ Domain 2 improvement) (postchemotherapy, Month 12, vehicle first 6 months then bimatoprost (Veh/Bim)): 67.6% | ESQ Domain 2 mean change in total score from baseline (postchemotherapy, visit not stated (months 4 and 6 discussed)): 2.8
